Assay results reported in patent US4257941A, “Polycyclic nitrogen-containing compounds” (BASF Aktiengesellschaft, priority 1976, dated 1981).

Tests used:
Assay type in all cases: in vivo
soybeans [1] = assay: Action on soybeans, hydroponic (Example 17a); settings: for Root dry substance rel. / Root length rel. / Shoot dry substance rel. / Shoot length rel.: control 100
Method: (§1) Young soybean plants grown in quartz sand were transferred to hydroponic treatment in 4 liter vessels and provided with a sufficient supply of nutrient solution and trace elements. The active ingredients were added (0.25 mg/vessel=0.06 ppm; 1.0 mg/vessel=0.25 ppm; 2.5 mg/vessel=0.63 ppm) at a plant height of approx. 22 cm. The plants were in continuous contact with the active ingredients. […] The roots were also shorter, but the plants had more and stronger shoots.
(§2) The action on soybeans, field beans and sunflowers was examined under the same conditions as in Example 16. The shoots and roots of all 3 crop plants were considerably shortened. Whereas in the shoots the dry substance was reduced commensurately with the shortening, the dry substance in the roots rose (particularly in soybeans) as the concentration increased.

sunflowers [2] = assay: Action on sunflowers (Example 24); settings: for Plant height relative: control 100
From the text: The active ingredients were applied both to the soil and to the leaves.

rice = assay: Action on rice (Example 23); settings: leaf; for Plant height: 66 days; for Plant height relative: control 100
Method: At a growth height of 11 to 13 cm the active ingredients were sprayed onto the leaves in the usual manner. The plants were measured after 66 days.

soybeans [3] = assay: Growth of roots and shoots of soybeans, hydroponic (Example 16); settings: for Root dry substance rel. / Root length rel. / Shoot dry substance rel. / Shoot length rel.: control 100
Method: as §1

cotton = assay: Induction of flowering and growth height of cotton, hydroponic (Example 18); settings: for Shoot length: 4 weeks; for No. of squares per vessel (3 plants): control 0, average of 3 vessels; for Shoot length rel.: control 100
Method: Cotton plants were subjected to hydroponic treatment under the same conditions as in Example 16. The active ingredients were added (1.25 mg/vessel=0.3 ppm and 5 mg/vessel=1.25 ppm) at a height of the plant of 15 to 18 cm. […] The results below are averages from 3 vessels, each of 3 plants.

field beans = assay: Action on field beans, hydroponic (Example 17b); settings: for Root dry substance rel. / Root length rel. / Shoot dry substance rel. / Shoot length rel.: control 100
Method: as §1, §2

spring barley = assay: Stem length, lateral shoots and yield in spring barley (Example 12); settings: for Ear weight relative / No. of lateral shoots relative / Stem length relative: control 100
Method: To examine the effect of the various substances on spring barley up to the maturity stage of the plants, an experiment was carried out in large pots. The plants were grown in quartz sand (fertilized with 2 g N as ammonium nitrate in 3 doses, 1 g P2 O5 as secondary sodium phosphate, 1.5 g K2 O as potassium sulfate, 0.5 g MgO as magnesium sulfate, 10 ml of a solution of trace elements, and 10 mg of iron as an iron complex). […] The treated plants were up to 10% shorter than the control, and yields were also slightly up.

sunflowers [4] = assay: Action on sunflowers, hydroponic (Example 17c); settings: for Root dry substance rel. / Root length rel. / Shoot dry substance rel. / Shoot length rel.: control 100
Method: as §1, §2

Brc1ccc(N2N=NC3C4CC(C5N=NC45)C32)cc1 (stereo not drawn) [drawing 388]
Root dry substance (soybeans [1]; 0.06 ppm): 1.5 g | Root length (soybeans [1]; 0.06 ppm): 21.7 cm | Shoot dry substance (soybeans [1]; 0.06 ppm): 5.4 g | Shoot length (soybeans [1]; 0.06 ppm): 33.0 cm | Root dry substance rel. (soybeans [1]; 0.06 ppm): 136.4 | Root length rel. (soybeans [1]; 0.06 ppm): 75.6 | Shoot dry substance rel. (soybeans [1]; 0.06 ppm): 93.1 | Shoot length rel. (soybeans [1]; 0.06 ppm): 89.9 | Root dry substance (soybeans [1]; 0.25 ppm): 1.5 g | Root length (soybeans [1]; 0.25 ppm): 20.0 cm | Shoot dry substance (soybeans [1]; 0.25 ppm): 4.9 g | Shoot length (soybeans [1]; 0.25 ppm): 21.7 cm | Root dry substance rel. (soybeans [1]; 0.25 ppm): 136.4 | Root length rel. (soybeans [1]; 0.25 ppm): 69.7 | Shoot dry substance rel. (soybeans [1]; 0.25 ppm): 84.5 | Shoot length rel. (soybeans [1]; 0.25 ppm): 59.1 | Root dry substance (soybeans [1]; 0.63 ppm): 2.1 g | Root length (soybeans [1]; 0.63 ppm): 20.0 cm | Shoot dry substance (soybeans [1]; 0.63 ppm): 3.9 g | Shoot length (soybeans [1]; 0.63 ppm): 19.0 cm | Root dry substance rel. (soybeans [1]; 0.63 ppm): 190.9 | Root length rel. (soybeans [1]; 0.63 ppm): 69.7 | Shoot dry substance rel. (soybeans [1]; 0.63 ppm): 67.2 | Shoot length rel. (soybeans [1]; 0.63 ppm): 51.8

Clc1ccc(N2N=NC3C4CC(C5N=NC45)C32)cc1 (stereo not drawn) [drawing 406]
Plant height (sunflowers [2]; soil, 3.0 kg/ha): 26.5 cm | Plant height relative (sunflowers [2]; soil, 3.0 kg/ha): 73 | Plant height (sunflowers [2]; soil, 12.0 kg/ha): 15.5 cm | Plant height relative (sunflowers [2]; soil, 12.0 kg/ha): 43

Clc1ccc(N2N=NC3C4CC(C5N=NC45)C32)cc1 (stereo not drawn) [drawing 404]
Plant height (rice; 1.0 kg/ha): 35.0 cm | Plant height relative (rice; 1.0 kg/ha): 86.2 | Plant height (rice; 2.0 kg/ha): 33.0 cm | Plant height relative (rice; 2.0 kg/ha): 81.3 | Plant height (rice; 4.0 kg/ha): 29.5 cm | Plant height relative (rice; 4.0 kg/ha): 72.7 | Plant height (rice; 6.0 kg/ha): 28.5 cm | Plant height relative (rice; 6.0 kg/ha): 70.2

Clc1ccc(N2N=NC3C4CC(C5N=NC45)C32)cc1 (stereo not drawn) [drawing 387]
Root dry substance (soybeans [3]; 0.06 ppm): 13.5 g | Root length (soybeans [3]; 0.06 ppm): 28.3 cm | Shoot dry substance (soybeans [3]; 0.06 ppm): 39.0 g | Shoot length (soybeans [3]; 0.06 ppm): 70.7 cm | Root dry substance rel. (soybeans [3]; 0.06 ppm): 97.1 | Root length rel. (soybeans [3]; 0.06 ppm): 93.4 | Shoot dry substance rel. (soybeans [3]; 0.06 ppm): 94.9 | Shoot length rel. (soybeans [3]; 0.06 ppm): 95.4 | Root dry substance (soybeans [3]; 0.25 ppm): 13.2 g | Root length (soybeans [3]; 0.25 ppm): 24.7 cm | Shoot dry substance (soybeans [3]; 0.25 ppm): 31.5 g | Shoot length (soybeans [3]; 0.25 ppm): 62.3 cm | Root dry substance rel. (soybeans [3]; 0.25 ppm): 95.0 | Root length rel. (soybeans [3]; 0.25 ppm): 81.5 | Shoot dry substance rel. (soybeans [3]; 0.25 ppm): 76.6 | Shoot length rel. (soybeans [3]; 0.25 ppm): 84.1 | Root dry substance (soybeans [3]; 0.63 ppm): 15.0 g | Root length (soybeans [3]; 0.63 ppm): 24.7 cm | Shoot dry substance (soybeans [3]; 0.63 ppm): 26.6 g | Shoot length (soybeans [3]; 0.63 ppm): 51.7 cm | Root dry substance rel. (soybeans [3]; 0.63 ppm): 107.9 | Root length rel. (soybeans [3]; 0.63 ppm): 81.5 | Shoot dry substance rel. (soybeans [3]; 0.63 ppm): 64.7 | Shoot length rel. (soybeans [3]; 0.63 ppm): 69.8

Clc1ccc(N2N=NC3C4CC(C5N=NC45)C32)cc1 (stereo not drawn) [drawing 391]
Shoot length (cotton; 0.3 ppm): 40.2 cm | No. of squares per vessel (3 plants) (cotton; 0.3 ppm): 4.0 | Shoot length rel. (cotton; 0.3 ppm): 85.2 | Shoot length (cotton; 1.25 ppm): 27.8 cm | No. of squares per vessel (3 plants) (cotton; 1.25 ppm): 8.7 | Shoot length rel. (cotton; 1.25 ppm): 58.9

Brc1ccc(N2N=NC3C4CC(C5N=NC45)C32)cc1 (stereo not drawn) [drawing 407]
Plant height relative (sunflowers [2]; soil, 3.0 kg/ha): 84 | Plant height (sunflowers [2]; soil, 12.0 kg/ha): 22.5 cm | Plant height relative (sunflowers [2]; soil, 12.0 kg/ha): 62

Brc1ccc(N2N=NC3C4CC(C5N=NC45)C32)cc1 (stereo not drawn) [drawing 389]
Root dry substance (field beans; 0.06 ppm): 3.8 g | Root length (field beans; 0.06 ppm): 28.3 cm | Shoot dry substance (field beans; 0.06 ppm): 14.5 g | Shoot length (field beans; 0.06 ppm): 69.7 cm | Root dry substance rel. (field beans; 0.06 ppm): 63.3 | Root length rel. (field beans; 0.06 ppm): 68.5 | Shoot dry substance rel. (field beans; 0.06 ppm): 85.8 | Shoot length rel. (field beans; 0.06 ppm): 95.5 | Root dry substance (field beans; 0.25 ppm): 5.3 g | Root length (field beans; 0.25 ppm): 28.3 cm | Shoot dry substance (field beans; 0.25 ppm): 14.5 g | Shoot length (field beans; 0.25 ppm): 67.3 cm | Root dry substance rel. (field beans; 0.25 ppm): 85.5 | Root length rel. (field beans; 0.25 ppm): 68.5 | Shoot dry substance rel. (field beans; 0.25 ppm): 85.8 | Shoot length rel. (field beans; 0.25 ppm): 92.2 | Root dry substance (field beans; 0.63 ppm): 6.0 g | Root length (field beans; 0.63 ppm): 25.0 cm | Shoot dry substance (field beans; 0.63 ppm): 13.0 g | Shoot length (field beans; 0.63 ppm): 56.7 cm | Root dry substance rel. (field beans; 0.63 ppm): 96.8 | Root length rel. (field beans; 0.63 ppm): 60.5 | Shoot dry substance rel. (field beans; 0.63 ppm): 76.9 | Shoot length rel. (field beans; 0.63 ppm): 77.7

Brc1ccc(N2N=NC3C4CC(C5N=NC45)C32)cc1 (stereo not drawn) [drawing 392]
Shoot length (cotton; 0.3 ppm): 41.9 cm | No. of squares per vessel (3 plants) (cotton; 0.3 ppm): 2.6 | Shoot length rel. (cotton; 0.3 ppm): 88.8 | Shoot length (cotton; 1.25 ppm): 30.9 cm | No. of squares per vessel (3 plants) (cotton; 1.25 ppm): 8.3 | Shoot length rel. (cotton; 1.25 ppm): 65.5

Brc1ccc(N2N=NC3C4CC(C5N=NC45)C32)cc1 (stereo not drawn) [drawing 409]
Plant height (sunflowers [2]; leaf, 1.5 kg/ha): 33.0 cm | Plant height relative (sunflowers [2]; leaf, 1.5 kg/ha): 86 | Plant height (sunflowers [2]; leaf, 6.0 kg/ha): 30.0 cm | Plant height relative (sunflowers [2]; leaf, 6.0 kg/ha): 78

Brc1ccc(N2N=NC3C4CC(C5N=NC45)C32)cc1 (stereo not drawn) [drawing 405]
Plant height (rice; 1.0 kg/ha): 37.0 cm | Plant height relative (rice; 1.0 kg/ha): 91.1 | Plant height (rice; 2.0 kg/ha): 37.0 cm | Plant height relative (rice; 2.0 kg/ha): 91.1 | Plant height (rice; 4.0 kg/ha): 34.5 cm | Plant height relative (rice; 4.0 kg/ha): 85.0 | Plant height (rice; 6.0 kg/ha): 33.5 cm | Plant height relative (rice; 6.0 kg/ha): 82.5

Clc1ccc(N2N=NC3C4CC(C5N=NC45)C32)cc1 (stereo not drawn) [drawing 377]
Ear weight (spring barley; 0.5 kg/ha): 91.5 g | No. of lateral shoots (spring barley; 0.5 kg/ha): 105 | Stem length (spring barley; 0.5 kg/ha): 74.1 cm | Ear weight relative (spring barley; 0.5 kg/ha): 101.2 | No. of lateral shoots relative (spring barley; 0.5 kg/ha): 112.9 | Stem length relative (spring barley; 0.5 kg/ha): 96.4 | Ear weight (spring barley; 1.5 kg/ha): 94.8 g | No. of lateral shoots (spring barley; 1.5 kg/ha): 111 | Stem length (spring barley; 1.5 kg/ha): 69.7 cm | Ear weight relative (spring barley; 1.5 kg/ha): 104.9 | No. of lateral shoots relative (spring barley; 1.5 kg/ha): 119.4 | Stem length relative (spring barley; 1.5 kg/ha): 90.6

Brc1ccc(N2N=NC3C4CC(C5N=NC45)C32)cc1 (stereo not drawn) [drawing 390]
Root dry substance (sunflowers [4]; 0.06 ppm): 1.5 g | Root length (sunflowers [4]; 0.06 ppm): 18.7 cm | Shoot dry substance (sunflowers [4]; 0.06 ppm): 6.3 g | Shoot length (sunflowers [4]; 0.06 ppm): 35.0 cm | Root dry substance rel. (sunflowers [4]; 0.06 ppm): 100 | Root length rel. (sunflowers [4]; 0.06 ppm): 93.5 | Shoot dry substance rel. (sunflowers [4]; 0.06 ppm): 98.4 | Shoot length rel. (sunflowers [4]; 0.06 ppm): 84.7 | Root dry substance (sunflowers [4]; 0.25 ppm): 1.4 g | Root length (sunflowers [4]; 0.25 ppm): 16.7 cm | Shoot dry substance (sunflowers [4]; 0.25 ppm): 5.3 g | Shoot length (sunflowers [4]; 0.25 ppm): 27.3 cm | Root dry substance rel. (sunflowers [4]; 0.25 ppm): 93.3 | Root length rel. (sunflowers [4]; 0.25 ppm): 83.5 | Shoot dry substance rel. (sunflowers [4]; 0.25 ppm): 82.8 | Shoot length rel. (sunflowers [4]; 0.25 ppm): 66.1 | Root dry substance (sunflowers [4]; 0.63 ppm): 1.6 g | Root length (sunflowers [4]; 0.63 ppm): 12.7 cm | Shoot dry substance (sunflowers [4]; 0.63 ppm): 5.2 g | Shoot length (sunflowers [4]; 0.63 ppm): 27.3 cm | Root dry substance rel. (sunflowers [4]; 0.63 ppm): 106.7 | Root length rel. (sunflowers [4]; 0.63 ppm): 63.5 | Shoot dry substance rel. (sunflowers [4]; 0.63 ppm): 81.3 | Shoot length rel. (sunflowers [4]; 0.63 ppm): 66.1

Clc1ccc(N2N=NC3C4CC(C5N=NC45)C32)cc1 (stereo not drawn) [drawing 408]
Plant height relative (sunflowers [2]; leaf, 1.5 kg/ha): 78 | Plant height (sunflowers [2]; leaf, 6.0 kg/ha): 25.5 cm | Plant height relative (sunflowers [2]; leaf, 6.0 kg/ha): 67
